Assay results: US20080188688A1, “SOLVENTS FOR PHASE-TRANSFER-CATALYZED REACTIONS” (priority 2007, published 2008)

Test: Log P determined in accordance with OECD Guideline No. 107 for the Testing of Chemicals (water/n-octanol)
[1] = Log P (Log P value of the solvent, as measured in accordance with Guideline No. 107), summary table of the examples
[2] = Log P determined in accordance with OECD Guideline 107 for the Testing of Chemicals, water/n-octanol 1:1 by weight, 20° C.
[3] = log P value, as printed in the abbreviations list

Row | SMILES | logP [1] | logP [2] | logP [3]
1 | CCCCCCCCCC(=O)N(C)C [Decanoic acid dimethyl amide] | 2.94 | 2.94 | 2.94
2 | CC(=O)CC(C)C [MIBK, methyl isobutyl ketone] | 1.4 | 1.4 | 1.31
3 | COC(C)(C)C [MTBE, methyl tert.butyl ether] | 1.12 | 1.12 | –
